From patent US20180200257A1, “METHODS FOR THE TREATMENT OF INFLAMMATORY DISORDERS” (Galapagos NV, priority 2015, published 2018)

System: subjects with moderately to severely active RA who have an inadequate response to methotrexate (MTX)
Test: Study 2 (monotherapy) - Subject VAS mean changes (ACR patient assessment)
Assay type: in vivo, human
Conditions: LOCF, 12 weeks results
Description: The scale is 100 mm, the decrease in mm is shown. […] (dotted line), 100 mg q.d. (dashed line) or 200 mg q.d. (dark solid line). The results shown in the figures are calculated using Last-Observation-Carried-Forward (LOCF), which handles missing data by assigning the value recorded at the patient's last visit to all subsequent missed visits.
Randomized, double-blind, placebo-controlled, multicenter, phase IIb dose finding study of Compound 1 (dosed as a [Compound 1:HCl:3H2O]) administered for 24 weeks as monotherapy to subjects with moderately to severely active rheumatoid arthritis who have an inadequate response to methotrexate alone
Double-blind, placebo-controlled, monotherapy study in subjects with moderately to severely active RA who have an inadequate response to methotrexate (MTX) (oral or parenteral).
280 subjects randomized to one of 3 doses of Compound 1 (dosed as a [Compound 1:HCl:3H2O]) or to placebo, given once daily (q.d.).
Twelve weeks of treatment with Compound 1 (dosed as a [Compound 1:HCl:3H2O]) at 50 mg, 100 mg, or 200 mg q.d.; or placebo. At Week 12, all subjects on placebo and the subjects on the 50 mg dose who have not achieved 20% improvement in swollen joint count (SJC66) and tender joint count (TJC68) will be assigned to 100 mg q.d. in a blinded fashion and will continue treatment until Week 24. Subjects in the other groups will maintain their randomized treatment until Week 24.
Firstly, the patient is asked to make a vertical mark on a 100 mm Visual Analog Scale (VAS) corresponding to their general health or global disease activity on a touch screen to measure the VAS value, which is used in the formula below.
The American College of Rheumatology (ACR) composite score, which evaluates clinical improvement relative to an initial assessment, is a commonly accepted efficacy end point for clinical trials in patients with rheumatoid arthritis. The ACR score correspond to a percentage improvement in pre-set parameters, and therefore measures the evolution of the disease in a patient. For example, ACR20 denotes at least 20% improvement in tender and swollen joint counts and in three of the following end points: global assessment by the patient, global assessment by the doctor, C reactive protein (CRP), patient's pain Visual Analogue Scale and Health Assessment Questionnaire Score. The number of swollen joints, ESR and CRP correlate with radiographic progression of joint damage, whereas tender joint counts, as well as global assessments by doctors and patients, and patients' reports of pain, are sensitive to change in clinical outcomes. Physical function, as assessed by the Health Assessment Questionnaire Score, is a potent predictor of the risk of disability in rheumatoid arthritis (Felson and American College of Rheumatology Committee to Reevaluate Improvement Criteria, 2007; Felson et al., 1993).

Compound: O=C(Nc1nc2cccc(-c3ccc(CN4CCS(=O)(=O)CC4)cc3)n2n1)C1CC1 [Compound 1, cyclopropanecarboxylic acid {5-[4-(1,1-dioxo-thiomorpholin-4-ylmethyl)-phenyl]-[1,2,4]triazolo[1,5-a]pyridin-2-yl}-amide]
- Subject VAS mean changes (ACR patient assessment) (50 mg q.d., week 0): 0.0%
- Subject VAS mean changes (ACR patient assessment) (50 mg q.d., week 1): −12.3%
- Subject VAS mean changes (ACR patient assessment) (50 mg q.d., week 2): −17.3%
- Subject VAS mean changes (ACR patient assessment) (50 mg q.d., week 4): −19.3%
- Subject VAS mean changes (ACR patient assessment) (50 mg q.d., week 8): −23.6%
- Subject VAS mean changes (ACR patient assessment) (50 mg q.d., week 12): −27.4%
- Subject VAS mean changes (ACR patient assessment) (100 mg q.d., week 0): 0.0%
- Subject VAS mean changes (ACR patient assessment) (100 mg q.d., week 1): −12.2%
- Subject VAS mean changes (ACR patient assessment) (100 mg q.d., week 2): −17.2%
- Subject VAS mean changes (ACR patient assessment) (100 mg q.d., week 4): −21.3%
- Subject VAS mean changes (ACR patient assessment) (100 mg q.d., week 8): −29.2%
- Subject VAS mean changes (ACR patient assessment) (100 mg q.d., week 12): −29.8%
- Subject VAS mean changes (ACR patient assessment) (200 mg q.d., week 0): 0.0%
- Subject VAS mean changes (ACR patient assessment) (200 mg q.d., week 1): −14.8%
- Subject VAS mean changes (ACR patient assessment) (200 mg q.d., week 2): −19.9%
- Subject VAS mean changes (ACR patient assessment) (200 mg q.d., week 4): −25.0%
- Subject VAS mean changes (ACR patient assessment) (200 mg q.d., week 8): −30.3%
- Subject VAS mean changes (ACR patient assessment) (200 mg q.d., week 12): −28.8%
